Assay results reported in patent US8030444B2, “Microbicidal compositions comprising human CD38 polypeptides derived from the extracellular membrane-proximal region” (priority 2002, dated 2011).
pEC50: −log10 of the molar value. Read-outs that look alike come from different tables or passages of the source. Ends that are not written are not given here.

Legend:
[1] = test system: HIV-1IIIB-infected MT-4 cells; assay: HIV-1 cytopathogenicity in MT-4 cells, re-clustering after cluster disruption; type: cell-based; settings: five days post-infection with HIV-1IIIB, 100 μM (FIG. 6)
Description: MT-4 cells display a typical clustered pattern. When infected with HIV-1IIIB, MT-4 cells lose the capacity of forming clusters. At five days post-infection, clusters were dissociated by pipetting, and reclustering was examined microscopically after a 3-h incubation at 37° C., as described by Pauwels et al. Pauwels, R., et al., “Sensitive and rapid assay on MT-4 cells for detection of antiviral compounds against the AIDS virus,” J Virol Methods, 16: 171-185 (1987). In MT-4 cells, in fact, HIV-1IIIB acts as a slow/low syncytium-inducing strain whose cytopathic effect consists in loss of cell ability to cluster and is strictly correlated to the level of viral replication.

MT-4 cells = assay: Toxicity assays (trypan blue, MTT, propidium iodide/annexin V) on MT-4 cells; type: cell-based
Description: (§1) Cell proliferation was assessed by sequential counts of the number of live cells per ml of cell cultures by the trypan-blue exclusion method. Cell viability and apoptosis were analyzed by the methyl tetrazolium (MTT) method (Sigma-Aldrich) according to a procedure previously described in Savarino, A., Calosso, L., Piragino, A., Martini, C., Gennero, L., Pescarmona, G. P., and Pugliese, A. (1999). Modulation of surface transferrin receptors in lymphoid cells de novo infected with human immunodeficiency virus type-1. Cell. Biochem. Funct 17, 47-55, the contents of which are hereby incorporated in their entirety, and by propidium iodide/annexin V FITC staining (MedSystems Diagnostics GmbH, Vienna, Austria) following the manufacturer's instructions.
(§2) Cells (from established cell lines or primary cultures) were resuspended at 2.5×10^5/ml in the presence of 0, 0.1, 1, 10 and 100 nM CD3851-74 MBP. Then, 200 μL portions were transferred to microtiter trays and maintained at 37° C. […] Cell viability was monitored daily by trypan blue-dye exclusion. Cell proliferation was assessed by sequential counts of the number of live cells per ml of cell cultures by the trypan-blue exclusion method. Cell viability and apoptosis were analyzed by the methyl tetrazolium (MTT) method, and by propidium iodide/annexin V fluorescein isothiocyanate (FITC) staining following the manufacturer's instructions. […]

[2] = test system: primary HIV-1 isolates (R5); assay: Infection of PBMC by primary HIV-1 isolates, p24 ELISA; type: cell-based
HIV-1IIIB [3] = test system: HIV-1IIIB
[4] = target: T1, recombinant soluble human (rsh) CD4 (Homo sapiens, UniProt P01730); assay: Binding of biotin-conjugated peptide to plate-adsorbed rshCD4 (ELISA); settings: 0.1-10 μM peptide
T1 construct: recombinant soluble human (rsh) CD4 (2 μg/ml) (R&D Systems); purchased R&D Systems
Description: Synthetic peptides from CD38 (SEQ ID NO:23) were conjugated with biotin (Pierce) as described in Wilchek, M., and Bayer, E. A., “Avidin-biotin technology,” Methods Enzymol., 184:1-746 (1990). Briefly, recombinant soluble human (rsh) CD4 (2 μg/ml) (R&D Systems) was adsorbed onto wells of 96-well-ELISA plates. Wells were then saturated with phosphate buffer saline (PBS)+2% bovine serum albumin (BSA), washed with PBS+1% BSA+0.05% Triton X-100, and the plates were incubated for 2 h at 37° C. with 100 μL of different concentrations (0.1-10 μM) of biotin-conjugated peptide. After six washes, 100 microl of streptavidin-conjugated horseradish peroxidase (HRP) from a commercially available HIV-1 p24 ELISA kit (NEN) diluted 1:100 in PBS+1% BSA was added to the wells for 30 min. at room temperature. After six more washes, the wells were incubated in the dark for 30 min. at room temperature with 100 μL of o-phenylenediamine (OPD tablets-Sigma), a chromogenic substrate for HRP diluted in phosphate-citrate buffer pH 5.0 as indicated in the Manufacturer's instructions. Then, the reaction was stopped by adding to each well 100 μL of 4 N sulfuric acid. Plates were read at 450 nm using an automated ELISA reader. […] Negative controls were run by incubating the wells with each of the titrated peptide in the absence of rshCD4 and performing the same steps described above. […]

PHA-stimulated PBMC = assay: Cytokine production by PBMC in response to PHA; type: cell-based
Description: To evaluate whether CD3851-74 MBP might costimulate activation of PBMC, tests were conducted to evaluate cytokine production in response to PHA. For this purpose, PBMC were ficoll-separated and incubated with 0, 0.1, 1, 10 nM CD3851-74 MBP, in the presence of 0.1 or 1 μg/ml PHA. Then, supernatants were collected at 4, 12, 24, and 36 h of incubation, and the levels of TNF-alpha, IFN-gamma, IL-02, IL-4, IL-5, IL-6 and IL-10 were tested by ELISA (R and D Systems, Minneapolis, Minn.) or by cytofluorimetric multi-cytokine bead arrays (Becton-Dickinson). […] Some of these effects are depicted in the FIGS. 14, 15, 16 and 17. […] However, if significant, it would not be of safety concern. By contrast, it would support the anti-HIV effect of CD3851-74 MBP, since both TNF-alpha and IL-6 promote HIV-1 replication. […] De S K, Devadas K, Notkins A L. Elevated levels of tumor necrosis factor alpha (TNF-alpha) in human immunodeficiency virus type 1-transgenic mice: prevention of death by antibody to TNF-alpha. J Virol 2002; 76: 11710-4.

HeLa cells = assay: Toxicity assays (trypan blue, MTT, propidium iodide/annexin V) on HeLa cells; type: cell-based; settings: 0.1-100 nM
Description: as §1, §2

[5] = target: FITC-conjugated HIV-1IIIB gp120; assay: gp120 attachment assay, FITC-gp120 staining of cells by flow cytometry; type: binding; settings: MT-2 cells, 50 nM peptide, 5 μg/ml gp120
Description: In gp120 attachment assays, cells were incubated for 30 min. at 4° C. with 2 μg/ml of FlTC-conjugated HIV-1IIIB gp120 (gp120IIIB, Intracell Corp, London, UK) in PBS plus 2% albumin plus 0.01% NaN3 (PBS A/A) in the presence or absence of CD38 or CD38-derived molecules. Cells were then washed three times in PBS A/A, and fluorescence was acquired by flow cytometry. Fluorescence data were expressed as MeFI and normalized for CD4 expression where necessary.
In gp120 attachment assays, cells were incubated with saturating concentrations of FITC-conjugated gp120 from the HIV-1IIIB strain (gp120IIIB) (Intracell Corp, London, UK) in the presence or absence of CD3851-74, (SEQ ID NO:15, 21), and acquired fluorescence flow-cytometrically. The MeFI was used as an estimate of gp120 binding to cells.
HIV-1 gp120 binding experiments confirmed that CD3851-74 MBP inhibits at the level of gp120 attachment to target cells. In these experiments, MT-2 cells were incubated for 30 min. at 4° C. with saturating concentrations (5 μg/ml) of fluorescein isothiocyanate-labeled (FITC) HIV-1IIIB gp 120 (gp 120IIIB) in PBS plus 2% albumin plus 0.01% NaN3 (PBS A/A) in the presence or absence of 50 nM CD3851-74 MBP. Cells were then washed three times in PBS A/A, and fluorescence was acquired by flow cytometry.

[6] = test system: primary peripheral blood mononuclear cells (PBMC); assay: Toxicity assays (trypan blue, MTT, propidium iodide/annexin V) on PBMC; type: cell-based
Description: as §1, §2

[7] = Water solubility of peptides
HIV-1IIIB [8] = assay: HIV-1IIIB infection of wild-type MT-2 cells in presence of soluble CD38; type: cell-based
Description: In acute infection assays, the appropriate cell types were incubated at 37° C. for 2 h with the viral stock suspensions at a multiplicity of infection (MOI) of approximately 0.1, unless otherwise specified. After three washes, cells were incubated in fresh culture medium for 7 days at 37° C., and cell-free supernatants at different intervals post-infection were harvested for ELISA measurement of HIV-1 p24 (NEN Life Science Prod., Boston Mass.) or HIV-2 p27 (Coulter, Hialeah, Fla.). Where necessary, soluble CD38-derived molecules were added during the step of virus adsorption onto cells.
First, attention was focused on the intracellular (IC) domain of CD38. HIV-1IIIB was used to infect both a MT-2 cell line transfected with a truncated form of CD38 lacking the IC domain (CD3824-300) and wild-type MT-2 cells in the presence of a recombinant soluble form of CD38 consisting solely of the extracellular (EC) domain (sCD3845-300).

## (GPGTTK)8 polylysin (also: eight copies on polylysine core (MBP); listed as Homo sapiens) [GPGTTK MBP]
[1]
  ability of infected MT-4 cultures to form clusters: maintained a partial ability to form clusters
MT-4 cells; concentrations showing anti-HIV effects
  toxic effects on MT-4 cells: no toxic effects
[2]; HIV-1UG3, PBMC, MOI 0.5, 1 nM
  anti-HIV activity against higher viral challenge: maintains the anti-HIV activity
HIV-1IIIB [3]; MT-4 cells, p24 ELISA
  inhibition of HIV-1IIIB replication (in words): dose-dependently inhibited infection
[4]
  association of biotin-conjugated peptide to rshCD4 (O.D.): associated to rshCD4 in a manner dependent on the concentration

## (SGPGTTKRFPETVLACVKYTEIH)8 polylysin [CD3851-74 MBP]
PHA-stimulated PBMC; PBMC, 0.1 or 1 μg/ml PHA, 0.1, 1, 10 nM peptide
  IL-2, IL-4, IL-5 and IL-10 levels versus untreated cells: essentially identical
PHA-stimulated PBMC; PHA-stimulated PBMC, decrease did not reach statistical significance
  TNF-alpha and IL-6 levels: transient and donor-dependent inhibition
HeLa cells
  cell proliferation, viability and death: does not alter cell proliferation and viability nor does it induce death
MT-4 cells; MT-4 cells, 0.1-100 nM
  cell proliferation, viability and death: does not alter cell proliferation and viability nor does it induce death
[5]
  gp120-FITC binding to cells: down-modulated
[2]; PBMC, 1 nM
  growth kinetics of primary R5 isolates subtype C (VI 829) and subtype A (UG3): delayed the growth kinetics
[2]; antiviral effects at 0.1 nM, no toxicity up to 100 nM
  estimated selectivity index: 1000
[2]; pilot experiments, PBMC, isolate VI 829
  concentration range inhibiting infection of PBMC by primary HIV-1 isolates: 0.1 to 10 nM
[2]; see Example IV
  concentration at which antiviral effects were detected: 0.1 nM
[6]; 0.1 nM-100 nM, growth kinetics, trypan blue, MTT, annexin V/propidium iodide
  toxicity in uninfected PBMC cultures: did not display any significant toxicity
[6]; PBMC, PHA-stimulated or unstimulated, three donors, 0.1-100 nM
  cell proliferation, viability and death: does not alter cell proliferation and viability nor does it induce death
HIV-1IIIB [3]; HIV-1 replication, compared with Example I
  range of inhibitory concentrations lower than that of CD3851-74: approximately 1000 fold
HIV-1IIIB [3]; MT-4 cells, p24 ELISA Day 3
  concentration range of dose-dependent inhibition of HIV-1IIIB infection: 1 to 10 nM
HIV-1IIIB [3]; read-out: EC50, inhibition of HIV-1IIIB infection, MT-4 cells, p24 ELISA Day 3, peptide added only during virus adsorption
  pEC50: 7.92
HIV-1IIIB [3]; read-out: EC90, inhibition of HIV-1IIIB infection, MT-4 cells, p24 ELISA Day 3, peptide added only during virus adsorption
  EC90: 0.075 µM

## RQQWSGPGTTKRFPETVLARCVKYTEIH [SEQ ID NO: 17]
[7]
  water solubility: water-insolubility

## RQTWSGPGTTKRFPETVLARCVKYTEIH [SEQ ID NO: 13]
[7]
  water solubility: water-insolubility

## RWRQQWSGPGTTKRFPETVLARCVKYTEIH [SEQ ID NO: 16]
[7]
  water solubility: water-insolubility

## RWRQTWSGPGTTK [SEQ ID NO: 14]
[7]
  water solubility: water-insolubility

## RWRQTWSGPGTTKRFPETVLARCVKYTEIH [SEQ ID NO: 12]
[7]
  water solubility: water-insolubility

## SGPGTTKRFPETVLARCVKYTEIH [CD3851-74]
Cell cultures
  toxic effects at the concentrations used: did not carry out toxic effects
HIV-1IIIB [3]; 1IIIB, 2 h
  pEC50: 5.66
  EC90: 182 µM

## sCD3845-300: recombinant soluble form of CD38 consisting solely of the extracellular (EC) domain
HIV-1IIIB [8]
  HIV infection of MT-2 cells: inhibited HIV infection
